Reference: ChEMBL document CHEMBL1201862, “PubChem BioAssay data set” (2004)
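Tested at 5 concentrations; 48 h exposure; 96-well plates; endpoints linearly interpolated, else capped at highest concentration. Abbreviation: GI50, concentration required for 50% inhibition of growth.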 Active and inactive are the calls of the source. Cut-off read from the data, not from the text of the source: active = GI50 up to about 1.1 µM and inactive = higher.

Columns and labels:
Assay in all cases: DTP human tumour cell line panel, 48 h
[1] = test system: XF498
[2] = test system: DMS-114
[3] = test system: LXFL 529
[4] = test system: DMS-273
[5] = test system: KM-20L2
[6] = test system: M19-MEL
[7] = test system: RXF 631
[8] = test system: BT-549
[9] = test system: HOP-18

`COc1ccc(OC)c2c(=S)c3ccccc3[nH]c12` was tested, and the GI50 [1] was > 100 µM (inactive), the GI50 [2] was 32 µM (inactive) and the GI50 [3] was 56 µM (inactive). The GI50 [4] was > 82.8 µM (inactive), the GI50 [5] was > 100 µM (inactive) and the GI50 [6] was > 100 µM (inactive). For the same compound, the GI50 [7] was 41.5 µM (inactive) and the GI50 [8] was > 100 µM (inactive).

`Cc1cc2c(cc1C)[n+]([O-])c(C(=O)/C=C/c1ccccc1Cl)c(C)[n+]2[O-]` was tested, and the GI50 [1] was 18.5 µM (inactive), the GI50 [2] was 21.8 µM (inactive) and the GI50 [9] was 29.3 µM (inactive). The GI50 [3] was 18.2 µM (inactive), the GI50 [4] was 29.4 µM (inactive) and the GI50 [5] was 35.2 µM (inactive). For the same compound, the GI50 [6] was 36 µM (inactive) and the GI50 [7] was 24.7 µM (inactive).

`O=C1CC2CCCCC2=C1O` (configuration not stated) was tested, and the GI50 [1] was > 100 µM (inactive), the GI50 [2] was > 100 µM (inactive) and the GI50 [3] was > 100 µM (inactive). For the same compound, the GI50 [4] was > 100 µM (inactive), the GI50 [6] was > 100 µM (inactive) and the GI50 [7] was > 100 µM (inactive).

For `Cc1ccc(S(=O)(=O)N/N=c2\c(C)c(C3=NS(=O)(=O)c4cc(S(N)(=O)=O)c(Cl)cc4N3)oc3c(Cl)cc(Cl)cc23)cc1`, the GI50 [2] was 26.9 µM (inactive), the GI50 [9] was 45.3 µM (inactive) and the GI50 [3] was > 100 µM (inactive). For the same compound, the GI50 [4] was 27 µM (inactive), the GI50 [5] was > 100 µM (inactive) and the GI50 [6] was > 100 µM (inactive). The GI50 [7] was 79.1 µM (inactive).

With `CN(C)C(=S)/N=c1\ssc(=S)n1Cc1ccco1` the GI50 [1] was 4.39 µM (inactive), the GI50 [2] was 1.99 µM (inactive) and the GI50 [9] was 82.2 µM (inactive). For the same compound, the GI50 [3] was 3.48 µM (inactive), the GI50 [4] was 0.587 µM (active) and the GI50 [5] was 1.93 µM (inactive). The GI50 [6] was 2.16 µM (inactive), the GI50 [7] was 4.69 µM (inactive) and the GI50 [8] was 12.2 µM (inactive).

`COC(=O)CCC1(NS(=O)(=O)c2ccc(C)cc2)CCC(C(C)(C)C)CC1` (configuration not stated) was tested, and the GI50 [1] was 14.8 µM (inactive), the GI50 [2] was 4.58 µM (inactive) and the GI50 [3] was 15 µM (inactive). The GI50 [4] was 12.9 µM (inactive), the GI50 [6] was 11.4 µM (inactive) and the GI50 [7] was 15.9 µM (inactive).

`O=[N+]([O-])c1ccccc1S(=O)(=O)c1ccccc1` was tested, and the GI50 [1] was 0.321 µM (active), the GI50 [2] was 64 µM (inactive) and the GI50 [9] was > 100 µM (inactive). For the same compound, the GI50 [3] was > 100 µM (inactive), the GI50 [4] was > 100 µM (inactive) and the GI50 [5] was > 100 µM (inactive). For the same compound, the GI50 [6] was 39.4 µM (inactive) and the GI50 [7] was 18.5 µM (inactive).
